Results reported in PMC7451048 (Drug metabolism letters, 2019).

Key:
OATP1B1 [1] = details: cited from earlier work
[2] = test system: OCT/PMAT/MATE transporters; details: read-out: IC50 (OCT/PMAT/MATE inhibitor); reported; ref [44]–[47]; cited from earlier work
OATP4A1 = target: T1, OATP4A1 (Homo sapiens, UniProt Q96BD0); experiment: Cellular uptake assay, HEK/OATP4A1 vs HEK empty vector cells; details: model substrate at 5 μM (Fig. S2)
T1 sequence (Q96BD0 1-722): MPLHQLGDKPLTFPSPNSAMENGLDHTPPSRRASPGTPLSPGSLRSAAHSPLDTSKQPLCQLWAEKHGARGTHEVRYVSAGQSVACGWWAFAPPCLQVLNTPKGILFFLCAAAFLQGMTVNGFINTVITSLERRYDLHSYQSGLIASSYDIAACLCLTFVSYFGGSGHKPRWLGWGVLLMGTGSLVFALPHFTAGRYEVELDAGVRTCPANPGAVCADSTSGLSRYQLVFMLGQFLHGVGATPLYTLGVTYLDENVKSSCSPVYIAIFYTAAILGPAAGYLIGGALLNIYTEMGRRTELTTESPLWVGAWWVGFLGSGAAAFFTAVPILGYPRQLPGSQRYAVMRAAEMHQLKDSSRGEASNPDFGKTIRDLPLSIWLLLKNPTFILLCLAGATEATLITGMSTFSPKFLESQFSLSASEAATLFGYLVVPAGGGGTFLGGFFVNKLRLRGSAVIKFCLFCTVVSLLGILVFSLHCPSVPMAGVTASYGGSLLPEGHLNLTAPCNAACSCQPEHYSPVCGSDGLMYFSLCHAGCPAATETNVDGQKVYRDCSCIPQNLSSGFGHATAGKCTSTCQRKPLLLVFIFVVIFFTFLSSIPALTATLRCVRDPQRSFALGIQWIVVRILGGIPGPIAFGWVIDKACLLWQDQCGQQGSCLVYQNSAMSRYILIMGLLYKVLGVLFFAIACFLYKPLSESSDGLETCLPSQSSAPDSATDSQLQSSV

OATP2B1 [3] = target: T2, OATP2B1 (Homo sapiens, UniProt O94956); details: model substrate at 5 μM (Fig. S2)
T2 sequence (O94956 1-709): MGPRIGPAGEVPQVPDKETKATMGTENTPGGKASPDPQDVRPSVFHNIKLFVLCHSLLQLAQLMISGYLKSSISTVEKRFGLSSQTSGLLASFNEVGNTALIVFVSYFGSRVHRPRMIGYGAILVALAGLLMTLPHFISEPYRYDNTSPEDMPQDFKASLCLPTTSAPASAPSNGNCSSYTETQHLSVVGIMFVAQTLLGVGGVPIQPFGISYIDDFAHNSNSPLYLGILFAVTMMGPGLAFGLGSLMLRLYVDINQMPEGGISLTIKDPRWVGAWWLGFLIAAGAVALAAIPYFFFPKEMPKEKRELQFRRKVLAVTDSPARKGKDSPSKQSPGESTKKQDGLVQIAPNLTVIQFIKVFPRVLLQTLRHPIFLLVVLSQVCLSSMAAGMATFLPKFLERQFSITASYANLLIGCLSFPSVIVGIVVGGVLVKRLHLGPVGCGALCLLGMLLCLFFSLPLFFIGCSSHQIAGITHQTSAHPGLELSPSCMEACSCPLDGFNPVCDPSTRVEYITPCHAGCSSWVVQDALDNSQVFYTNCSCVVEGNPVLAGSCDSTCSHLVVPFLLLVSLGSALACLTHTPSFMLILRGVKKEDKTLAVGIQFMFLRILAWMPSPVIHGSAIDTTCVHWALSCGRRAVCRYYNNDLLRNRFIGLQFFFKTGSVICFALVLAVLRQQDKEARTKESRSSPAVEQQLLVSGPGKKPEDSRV

MRP2 = MRP2 (Homo sapiens, UniProt Q92887); experiment: Plasma membrane vesicle transport assay, MRP2 vesicles; details: model substrate at 5 μM (Fig. S5)
BCRP = target: T3, BCRP (Homo sapiens, UniProt Q9UNQ0); experiment: Plasma membrane vesicle transport assay, BCRP vesicles; type: in vitro ADME; details: model substrate at 5 μM (Fig. S5)
T3 sequence (Q9UNQ0 1-655): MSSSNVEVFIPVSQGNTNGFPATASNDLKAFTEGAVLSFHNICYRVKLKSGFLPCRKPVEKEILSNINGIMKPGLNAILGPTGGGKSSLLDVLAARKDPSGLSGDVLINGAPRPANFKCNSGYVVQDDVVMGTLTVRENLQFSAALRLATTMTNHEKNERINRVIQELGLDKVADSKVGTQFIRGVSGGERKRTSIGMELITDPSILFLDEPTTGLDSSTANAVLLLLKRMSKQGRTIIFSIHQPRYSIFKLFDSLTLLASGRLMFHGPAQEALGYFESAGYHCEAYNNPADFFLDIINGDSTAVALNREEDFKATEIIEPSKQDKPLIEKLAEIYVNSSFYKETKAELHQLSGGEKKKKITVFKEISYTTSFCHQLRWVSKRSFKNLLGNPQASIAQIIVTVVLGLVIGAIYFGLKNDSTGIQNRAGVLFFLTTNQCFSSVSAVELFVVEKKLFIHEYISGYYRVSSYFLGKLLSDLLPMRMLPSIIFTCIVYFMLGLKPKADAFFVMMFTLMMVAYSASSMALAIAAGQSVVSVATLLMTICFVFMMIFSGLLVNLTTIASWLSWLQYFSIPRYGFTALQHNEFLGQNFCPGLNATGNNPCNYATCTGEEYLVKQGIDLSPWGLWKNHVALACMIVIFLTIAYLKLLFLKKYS

OATP1B3 [4] = target: T4, OATP1B3 (Homo sapiens, UniProt Q9NPD5); details: model substrate at 5 μM (Fig. S2)
T4 sequence (Q9NPD5 1-702): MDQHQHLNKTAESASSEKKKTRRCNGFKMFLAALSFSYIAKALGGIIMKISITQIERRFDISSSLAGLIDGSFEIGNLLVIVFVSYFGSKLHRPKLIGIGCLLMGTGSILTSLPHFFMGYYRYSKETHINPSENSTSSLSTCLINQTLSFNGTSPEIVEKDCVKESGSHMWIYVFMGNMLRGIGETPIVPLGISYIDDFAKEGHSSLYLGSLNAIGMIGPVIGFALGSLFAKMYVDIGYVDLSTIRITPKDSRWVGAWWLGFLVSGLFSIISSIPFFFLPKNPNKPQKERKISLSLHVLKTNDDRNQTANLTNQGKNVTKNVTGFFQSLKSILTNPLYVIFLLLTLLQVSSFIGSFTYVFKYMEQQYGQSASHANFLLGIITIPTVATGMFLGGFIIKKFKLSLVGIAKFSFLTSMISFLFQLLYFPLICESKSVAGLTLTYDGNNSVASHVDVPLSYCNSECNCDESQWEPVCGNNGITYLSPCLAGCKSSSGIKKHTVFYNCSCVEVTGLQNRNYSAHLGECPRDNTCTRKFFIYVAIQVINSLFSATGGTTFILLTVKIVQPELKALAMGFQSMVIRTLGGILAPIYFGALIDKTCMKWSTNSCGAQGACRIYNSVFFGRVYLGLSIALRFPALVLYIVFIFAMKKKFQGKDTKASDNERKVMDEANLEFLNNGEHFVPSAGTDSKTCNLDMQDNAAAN

OATP1B1 [5] = target: T5, OATP1B1 (Homo sapiens, UniProt Q9Y6L6); details: model substrate at 5 μM (Fig. S2)
T5 sequence (Q9Y6L6 1-691): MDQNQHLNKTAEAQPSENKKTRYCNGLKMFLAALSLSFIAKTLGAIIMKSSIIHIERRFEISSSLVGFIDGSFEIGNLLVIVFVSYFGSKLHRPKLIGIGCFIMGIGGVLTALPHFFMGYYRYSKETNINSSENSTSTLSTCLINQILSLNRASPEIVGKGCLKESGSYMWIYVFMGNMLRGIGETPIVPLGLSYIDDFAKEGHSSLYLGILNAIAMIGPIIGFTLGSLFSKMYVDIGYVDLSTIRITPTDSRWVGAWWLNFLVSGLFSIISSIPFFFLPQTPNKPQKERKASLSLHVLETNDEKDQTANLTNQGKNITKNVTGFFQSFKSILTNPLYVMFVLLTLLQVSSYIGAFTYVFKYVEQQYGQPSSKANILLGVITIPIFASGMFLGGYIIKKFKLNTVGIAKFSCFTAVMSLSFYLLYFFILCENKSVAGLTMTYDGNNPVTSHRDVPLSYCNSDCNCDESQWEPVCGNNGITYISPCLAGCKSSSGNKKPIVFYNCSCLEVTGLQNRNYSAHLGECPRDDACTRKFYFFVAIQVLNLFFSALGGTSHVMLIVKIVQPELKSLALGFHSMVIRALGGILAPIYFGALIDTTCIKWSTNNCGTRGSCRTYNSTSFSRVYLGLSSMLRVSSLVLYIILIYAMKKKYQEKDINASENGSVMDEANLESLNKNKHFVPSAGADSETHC

OATP1B3 [6] = details: read-out: IC50 for OATP1B3; reported; ref [22], [41]–[43]; cited from earlier work
OATP2B1 [7] = details: read-out: IC50 for OATP2B1; reported; ref [22], [41]–[43]; cited from earlier work
OCT1 = target: T6, OCT1 (Homo sapiens, UniProt O15245); experiment: Cellular uptake assay, HEK/OCT1 vs HEK empty vector cells; details: model substrate (Fig. S2)
T6 sequence (O15245 1-554): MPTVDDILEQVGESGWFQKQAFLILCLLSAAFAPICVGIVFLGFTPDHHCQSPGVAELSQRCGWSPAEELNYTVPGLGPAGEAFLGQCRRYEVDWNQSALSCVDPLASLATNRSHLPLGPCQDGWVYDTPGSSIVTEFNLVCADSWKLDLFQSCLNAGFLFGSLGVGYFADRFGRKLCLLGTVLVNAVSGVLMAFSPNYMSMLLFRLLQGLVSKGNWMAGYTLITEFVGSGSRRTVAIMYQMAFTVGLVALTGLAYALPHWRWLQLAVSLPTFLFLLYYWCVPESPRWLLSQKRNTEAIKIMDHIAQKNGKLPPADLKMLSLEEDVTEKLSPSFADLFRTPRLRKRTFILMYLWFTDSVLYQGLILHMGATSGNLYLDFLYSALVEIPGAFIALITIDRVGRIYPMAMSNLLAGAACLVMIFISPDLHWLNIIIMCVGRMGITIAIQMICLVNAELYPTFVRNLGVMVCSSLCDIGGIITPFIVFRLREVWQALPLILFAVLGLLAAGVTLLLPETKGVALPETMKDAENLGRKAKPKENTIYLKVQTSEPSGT

OAT = details: read-out: IC50 (OAT inhibitor); reported; ref [44]–[47]; cited from earlier work
[8] = substrate: CC(NC(C)(C)C)C(=O)c1cccc(Cl)c1

Chain of MRP2 (Q92887 whole entry): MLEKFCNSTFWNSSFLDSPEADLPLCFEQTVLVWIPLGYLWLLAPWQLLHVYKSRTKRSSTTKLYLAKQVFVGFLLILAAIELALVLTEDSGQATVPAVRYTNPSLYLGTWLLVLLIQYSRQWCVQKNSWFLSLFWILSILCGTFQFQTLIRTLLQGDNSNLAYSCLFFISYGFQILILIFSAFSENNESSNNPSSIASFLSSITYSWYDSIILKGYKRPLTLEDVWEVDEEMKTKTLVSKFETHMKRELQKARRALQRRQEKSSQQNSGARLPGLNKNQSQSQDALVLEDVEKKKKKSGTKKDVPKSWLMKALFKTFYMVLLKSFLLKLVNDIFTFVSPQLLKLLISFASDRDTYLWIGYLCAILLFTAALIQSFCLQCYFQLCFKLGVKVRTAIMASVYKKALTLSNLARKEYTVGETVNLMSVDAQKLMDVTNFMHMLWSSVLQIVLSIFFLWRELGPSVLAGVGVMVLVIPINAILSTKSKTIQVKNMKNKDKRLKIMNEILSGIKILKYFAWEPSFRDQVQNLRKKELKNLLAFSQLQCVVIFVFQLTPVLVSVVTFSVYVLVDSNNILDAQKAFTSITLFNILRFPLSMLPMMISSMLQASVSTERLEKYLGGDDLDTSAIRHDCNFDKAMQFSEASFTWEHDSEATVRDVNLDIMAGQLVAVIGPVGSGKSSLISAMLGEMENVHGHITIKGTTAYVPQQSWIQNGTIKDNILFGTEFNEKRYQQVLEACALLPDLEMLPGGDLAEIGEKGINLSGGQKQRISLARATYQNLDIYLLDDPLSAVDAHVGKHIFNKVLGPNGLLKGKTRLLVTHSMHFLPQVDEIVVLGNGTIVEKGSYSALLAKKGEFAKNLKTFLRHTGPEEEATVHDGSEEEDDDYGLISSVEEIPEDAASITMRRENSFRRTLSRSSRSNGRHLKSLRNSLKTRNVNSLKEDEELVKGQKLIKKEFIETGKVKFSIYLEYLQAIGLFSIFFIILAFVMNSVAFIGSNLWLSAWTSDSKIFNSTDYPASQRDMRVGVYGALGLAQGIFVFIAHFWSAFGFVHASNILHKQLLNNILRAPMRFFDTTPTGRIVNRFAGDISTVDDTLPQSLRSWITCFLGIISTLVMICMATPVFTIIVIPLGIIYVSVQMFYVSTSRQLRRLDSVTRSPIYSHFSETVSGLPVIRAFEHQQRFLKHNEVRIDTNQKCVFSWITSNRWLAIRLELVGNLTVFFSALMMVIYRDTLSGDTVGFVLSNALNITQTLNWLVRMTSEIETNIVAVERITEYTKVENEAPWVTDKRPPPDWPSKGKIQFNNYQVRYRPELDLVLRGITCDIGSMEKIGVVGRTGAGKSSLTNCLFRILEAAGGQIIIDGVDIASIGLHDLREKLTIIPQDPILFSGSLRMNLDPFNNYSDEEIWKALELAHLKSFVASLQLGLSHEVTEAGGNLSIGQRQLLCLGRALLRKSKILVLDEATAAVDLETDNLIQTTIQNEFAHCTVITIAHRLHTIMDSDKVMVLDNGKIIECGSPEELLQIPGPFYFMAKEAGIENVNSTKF

COC(=O)[C@H](c1ccccc1Cl)N1CCc2sccc2C1 [Clopidogrel]
Inhibition of OATP1B1 (OATP1B1 [1]; ref [26]): effective inhibitor

CCN1/C(=C/c2ccc3ccccc3[n+]2CC)C=Cc2ccccc21 [D-22, Decynium-22]
IC50 [2]: 13800 to 21900 nM

C[C@]12CC[C@@H]3c4ccc(OS(=O)(=O)O)cc4CC[C@H]3[C@@H]1CCC2=O [E1-3-S, Estrone-3-sulfate, reference compound]
Uptake into HEK/OATP4A1 cells relative to HEK vector control cells (OATP4A1): 20 times
Uptake into HEK/OATP2B1 cells relative to HEK vector control cells (OATP2B1 [3]): 42 times

C[C@]12CC[C@@H]3c4ccc(O)cc4CC[C@H]3[C@@H]1CC[C@@H]2O[C@@H]1O[C@H](C(=O)O)[C@@H](O)[C@H](O)[C@H]1O [E2-17β-G, estradiol-17β-glucuronide, reference compound]
Uptake into MRP2 vesicles in the presence of ATP relative to AMP (MRP2): 10–100 times
Uptake into BCRP vesicles in the presence of ATP relative to AMP (BCRP): 10–100 times
Uptake into CHO/OATP1B3 cells relative to CHO wild-type parent cells (OATP1B3 [4]): ~2 times
Uptake into CHO/OATP1B1 cells relative to CHO wild-type parent cells (OATP1B1 [5]): approximately 6 times

CO[C@H]1/C=C/O[C@@]2(C)Oc3c(C)c(O)c4c(O)c(c(/C=N/N5CCN(C)CC5)c(O)c4c3C2=O)NC(=O)/C(C)=C\C=C\[C@H](C)[C@H](O)[C@@H](C)[C@@H](O)[C@@H](C)[C@H](OC(C)=O)[C@@H]1C [RIF, Rifampin]
IC50 (OATP1B3 [6]): 1500 to 2600 nM
IC50 (OATP2B1 [7]): 2100 nM
IC50 (OATP1B1 [1]; read-out: IC50 for OATP1B1, reported, ref [22], [41]–[43]): 1500 to 3250 nM

C[n+]1ccc(-c2ccccc2)cc1 [[^3H]-MPP^+, reference compound]
Uptake into OCT1-overexpressing cells relative to vector control cells (OCT1): 15 times

CCCN(CCC)S(=O)(=O)c1ccc(C(=O)O)cc1 [probenecid]
IC50 (OAT): 3100 to 7400 nM

B1: OATP1B1 (Homo sapiens) (protein)
chain: MDQNQHLNKTAEAQPSENKKTRYCNGLKMFLAALSLSFIAKTLGAIIMKSSIIHIERRFEISSSLVGFIDGSFEIGNLLVIVFVSYFGSKLHRPKLIGIGCFIMGIGGVLTALPHFFMGYYRYSKETNINSSENSTSTLSTCLINQILSLNRASPEIVGKGCLKESGSYMWIYVFMGNMLRGIGETPIVPLGLSYIDDFAKEGHSSLYLGILNAIAMIGPIIGFTLGSLFSKMYVDIGYVDLSTIRITPTDSRWVGAWWLNFLVSGLFSIISSIPFFFLPQTPNKPQKERKASLSLHVLETNDEKDQTANLTNQGKNITKNVTGFFQSFKSILTNPLYVMFVLLTLLQVSSYIGAFTYVFKYVEQQYGQPSSKANILLGVITIPIFASGMFLGGYIIKKFKLNTVGIAKFSCFTAVMSLSFYLLYFFILCENKSVAGLTMTYDGNNPVTSHRDVPLSYCNSDCNCDESQWEPVCGNNGITYISPCLAGCKSSSGNKKPIVFYNCSCLEVTGLQNRNYSAHLGECPRDDACTRKFYFFVAIQVLNLFFSALGGTSHVMLIVKIVQPELKSLALGFHSMVIRALGGILAPIYFGALIDTTCIKWSTNNCGTRGSCRTYNSTSFSRVYLGLSSMLRVSSLVLYIILIYAMKKKYQEKDINASENGSVMDEANLESLNKNKHFVPSAGADSETHC
Km [8]: 31 ± 7 µM
Vmax [8]: 1407±91 pmol/mg protein/min
